From patent US10085449B2, “N-[1-((6-chloropyridin-3-yl)methyl)pyridin-2(1H)-ylidene]-2,2,2- trifluoroacetamide for control of agricultural/horticultural pests” (priority 2010, dated 2018)
Where two headings read alike, the source gives them in different places.

Columns and labels:
[1] = system: canine heartworm microfilariae; test: Effects on canine heartworm (motility of microfilariae); design: key: At least two-thirds of the heartworms died; B: Substantially all the heartworms were affected in some way, or at least one-third died; C: No influence, or less than one-third of the heartworms died; details: 3.13 ppm in RPMI1640 liquid culture medium, 37° C., observed for 48 hours
Description: The activities of the compounds were evaluated based on changes in the motility of microfilariae in canine heartworm. The respective compounds were dissolved in a RPMI1640 liquid culture medium to a concentration of 3.13 ppm, following which about 20 canine heartworm microfilariae were placed in each culture fluid and cultured at 37° C.
Criteria A: At least two-thirds of the heartworms died • B: Substantially all the heartworms were affected in some way, or at least one-third died • C: No influence, or less than one-third of the heartworms died

[2] = system: white-backed rice planthopper; test: White-backed rice planthopper control test (foliar application); format: in vivo; details: 100 ppm foliar application, second-instar larvae on rice seedlings, 4 days after release
Description: (§1) Rice seedlings grown in pots were subjected to the foliar application of solutions of the inventive compounds at a predetermined concentration prepared to 50% acetone/water (containing 0.05% Tween 20). The treated seedlings were air dried, following which second-instar larvae were released onto the seedlings. The seedlings and larvae were then held in an incubation chamber at 25° C. (16-hour period of light, 8-hour dark period). Four days after released, the numbers of live and dead insects were counted, and the mortality was calculated from the following formula. This was a two-replication test. Mortality (%)=[number of dead insects/(number of live insects+number of dead insects)]×100

greenhouse whitefly = test: whole plant or invertebrate; format: in vivo
Description: Adult greenhouse whiteflies were released onto cucumber plants grown in pots, and allowed to laid eggs overnight. One day after the start of oviposition, the adults were removed, and the plants and eggs were held in an incubation chamber at 25° C. (16-hour period of light, 8-hour dark period). Three days after the end of oviposition, leaf discs 2.0 cm in diameter were cut from the cucumber plants and, after confirming oviposition thereon, the leaf discs were sprayed with solutions of the inventive compounds at a predetermined concentration prepared to 50% acetone/water (containing 0.05% Tween 20). After spraying, the treated leaf discs were held in an incubation chamber at 25° C. (16-hour period of light, 8-hour dark period). Fourteen days after spraying, the numbers of live and dead insects were counted, and the mortality was calculated from the following formula. This was a two-replication test. Mortality (%)=[(number of oviposited eggs−number of live insects)/number of oviposited eggs]×100

small brown planthopper [3] = test: whole plant or invertebrate; format: in vivo; details: Laodelphax striatellus, in Triticum aestivum, 96 h
Description: Wheat seedling roots 48 hours after sowing were treated with solutions of the inventive compounds at a predetermined concentration prepared to 10% acetone/water. After allowing the roots to absorb the chemical for 72 hours, ten second-instar small brown planthopper larvae were released onto each seedling. The treated seedlings and larvae were then held in an incubation chamber at 25° C. (16-hour period of light, 8-hour dark period). Four days after released, the numbers of live and dead insects were counted, and the mortality was calculated from the following formula. The test was carried out as two replications. Mortality (%)=[number of dead insects/(number of live insects+number of dead insects)]×100

rice leaf bug = test: whole plant or invertebrate; format: in vivo; details: foliar, 72 h
Description: The treated seedlings were air-dried, then each was placed in a glass cylinder and two second-instar rice leaf bug larvae were released within the same glass cylinder. Following release of the insects, the tube was capped and held in an incubation chamber at 25° C. (16-hour period of light, 8-hour dark period). […] Three days after released, the numbers of live and dead insects were counted, and the mortality was calculated from the following formula. Mortality (%)=[number of dead insects/(number of live insects+number of dead insects)]×100

common cutworm = test: whole plant or invertebrate; format: in vivo; details: for Insecticidal effects (mortality), common cutworm third-instar larvae: foliar application
Description: (§2) Leaf discs 5.0 cm in diameter were cut from cabbage plants grown in pots, and these were sprayed with solutions of the inventive compounds at a predetermined concentration prepared to 50% acetone/water (containing 0.05% Tween 20). The treated leaf discs were air dried, following which third-instar larvae were released onto the discs. The leaf discs and larvae were then held in an incubation chamber at 25° C. (16-hour period of light, 8-hour dark period). Three days after released, the numbers of live and dead insects were counted, and the mortality was calculated from the following formula. This was a two-replication test. Mortality (%)=[number of dead insects/(number of live insects+number of dead insects)]×100

diamondback moth = test: whole plant or invertebrate; format: in vivo; details: Plutella xylostella, foliar
Description: as §2, with “second-instar” for “third-instar”

cotton aphid = test: whole plant or invertebrate; format: in vivo; details: Aphis gossypii, foliar
Description: as §2, with “2.0” for “5.0”, “cucumber” for “cabbage”, “first-instar” for “third-instar”

small brown planthopper [4] = test: whole plant or invertebrate; format: in vivo; details: Laodelphax striatellus, 72 h
Description: (§3) Rice seedlings grown in pots were subjected to soil drenching treatment with solutions of the inventive compounds at a predetermined concentration prepared to 10% acetone/water. Three days following treatment, ten second-instar small brown planthopper larvae were released onto each seedling. The treated seedlings and larvae were then held in an incubation chamber at 25° C. (16-hour period of light, 8-hour dark period). Three days after released, the numbers of live and dead insects were counted, and the mortality was calculated from the following formula. The test was carried out as two replications. Mortality (%)=[number of dead insects/(number of live insects+number of dead insects)]×100

western flower thrips = test: whole plant or invertebrate; format: in vivo; details: Frankliniella occidentalis, foliar
Description: as §2, with “2.8” for “5.0”, “bean” for “cabbage”, “first-instar” for “third-instar”

small brown planthopper [5] = test: whole plant or invertebrate; format: in vivo; details: Laodelphax striatellus, foliar
Description: as §1, with “Three” for “Four”

[6] = system: small brown planthopper having a low susceptibility to insecticides; test: Small brown planthopper control test, pests having a low susceptibility to insecticides (soil drenching); format: in vivo; details: 0.01 mg/seedling soil drenching
Description: as §3, with “days after” for “days following”, “larvae having a low susceptibility to insecticides” for “larvae”, “The” for “The treated”, “and insects” for “and larvae”
The pests used in this test were insects that had been raised indoors for successive generations over a long period of time (susceptible line), and insects that had been raised indoors for successive generations after being collected in 2006 within Kumamoto Prefecture (field-collected line).

[7] = read-out: Insecticidal effects (mortality), small brown planthopper second-instar larvae
[8] = read-out: Insecticidal effects (mortality), diamondback moth second-instar larvae
[9] = read-out: Insecticidal effects (mortality), cotton aphid first-instar larvae
[10] = soil, read-out: Insecticidal effects (mortality), small brown planthopper second-instar larvae
[11] = read-out: Insecticidal effects (mortality), western flower thrips first-instar larvae

`CSCCN(C#N)Cc1ccc(Cl)nc1` [Compound 1, 2-chloro-5-[N-cyano-N-(2-methylthioethyl)]aminomethylpyridine] was tested, and the “Microfilaricidal effect (motility rating)” value (“Microfilaricidal effect” below) [1] was “B” and the Mortality [2] was “at least 80%”.
For `CSC(=S)SCCN(C#N)Cc1ccc(Cl)nc1` [Compound 6, 2-[N-(6-chloro-3-pyridylmethyl)cyanamide] ethyl methylcarbonotrithioate], the “Microfilaricidal effect” value [1] was “B”.
In the case of `CCSC(=S)SCCN(C#N)Cc1ccc(Cl)nc1` [Compound 7], the “Microfilaricidal effect” value [1] was “B”.
With `CCCSC(=S)SCCN(C#N)Cc1ccc(Cl)nc1` [Compound 8] the “Microfilaricidal effect” value [1] was “B”.
For `O=C(N=c1ccccn1Cc1cnc(Cl)s1)C(F)(F)F` [Compound 213], the Mortality (greenhouse whitefly; 20 ppm foliar application, eggs on cucumber leaf discs, 14 days after spraying) was “at least 80%”.
In the case of `O=C(N=c1ccccn1Cc1ccc(F)nc1)C(F)(F)F` [Compound 229, N-[1-((6-fluoropyridin-3-yl)methyl)pyridin-2(1H)-ylidene]-2,2,2-trifluoroacetamide], the mortality at 20 µg/seedling (small brown planthopper [3]) was no less than 80%, the mortality at 0.063 mg/seedling (small brown planthopper [3]; [7]) was 25% and the mortality at 0.25 mg/seedling (small brown planthopper [3]; [7]) was 75%. For the same compound, the mortality at 0.5 mg/seedling (small brown planthopper [3]; [7]) was 100%, the mortality at 2 mg/seedling (small brown planthopper [3]; [7]) was 100% and the mortality at 50 ppm (rice leaf bug) was no less than 80%. The “Insecticidal effects (mortality), common cutworm third-instar larvae” value (common cutworm; 100 ppm) was 30, the “Insecticidal effects (mortality), common cutworm third-instar larvae” value (common cutworm; 500 ppm) was 100 and the mortality at 500 ppm (common cutworm; foliar, 72 h) was no less than 80%. The mortality at 20 ppm (diamondback moth; [8]) was 40%, the mortality at 100 ppm (diamondback moth; [8]) was 100% and the mortality at 500 ppm (diamondback moth; [8]) was 100%. For the same compound, the mortality at 100 ppm (diamondback moth; in Brassica oleracea, 72 h) was no less than 80%, the mortality at 500 ppm (diamondback moth; in Brassica oleracea, 72 h) was no less than 80% and the mortality at 1.25 ppm (cotton aphid; [9]) was 80%. For the same compound, the mortality at 5 ppm (cotton aphid; [9]) was 95%, the mortality at 20 ppm (cotton aphid; [9]) was 100% and the mortality at 100 ppm (cotton aphid; [9]) was 100%. For the same compound, the mortality at 500 ppm (cotton aphid; [9]) was 100%, the mortality at 20 ppm (cotton aphid; in Cucumis sativus, 72 h) was no less than 80% and the mortality at 100 ppm (cotton aphid; in Cucumis sativus, 72 h) was no less than 80%. It also gave a mortality at 500 ppm (cotton aphid; in Cucumis sativus, 72 h) of no less than 80%, a pest or weed control at 0.005 mg/pot (small brown planthopper [4]; rice soil drenching, 0.005 mg/pot (Table 13), read-out: Small brown planthopper (rice soil drenching), effect) of 30% and a pest or weed control at 0.01 mg/pot (small brown planthopper [4]; rice soil drenching, 0.01 mg/pot (Table 13), read-out: Small brown planthopper (rice soil drenching), effect) of 100%. For the same compound, the pest or weed control at 0.05 mg/pot (small brown planthopper [4]; rice soil drenching, 0.05 mg/pot (Table 13), read-out: Small brown planthopper (rice soil drenching), effect) was 100%, the mortality at 0.05 mg/seedling (small brown planthopper [4]; soil) was no less than 80% and the mortality at 0.005 mg/pot (small brown planthopper [4]; [10]) was 30%. It also gave a mortality at 0.01 mg/pot (small brown planthopper [4]; [10]) of 100%, a mortality at 0.05 mg/pot (small brown planthopper [4]; [10]) of 100% and a mortality at 100 ppm (greenhouse whitefly; Cucumis sativus, foliar, 336 h) of no less than 80%. For the same compound, the mortality at 500 ppm (western flower thrips; 72 h) was no less than 80%, the mortality at 100 ppm (western flower thrips; [11]) was 60% and the mortality at 500 ppm (western flower thrips; [11]) was 100%. The mortality at 5 ppm (small brown planthopper [5]; [7]) was 95% and the mortality at 100 ppm (small brown planthopper [5]; in Oryza sativa, 72 h) was no less than 80%.
With `N#Cc1nn(-c2c(Cl)cc(C(F)(F)F)cc2Cl)c(N)c1[S+]([O-])C(F)(F)F` (stereo not shown) [fipronil] the Mortality ([6]; field-collected line (2006 Kumamoto Prefecture)) was 70% and the Mortality ([6]; susceptible line) was 100%.
